Measured values as given in patent publication US7247306B2, “Bacteria strain and bacteriocin produced therefrom” (Universite Laval, priority 2004, dated 2007).

Tests used:
Format in all cases: cell-based
[1] = system: L. innocua HPB13; assay: Critical-dilution micromethod (microtiter plate assay) on purification stages; conditions: specific activity at stage ni divided by that of the culture supernatant
Procedure: The concentrated bacteriocin was further purified by Reverse-Phase Column Liquid Chromatography (RP-HPLC) using a Beckman Gold System (Beckman Coulter Canada Inc., Mississauga, ON, Canada). Briefly, 100 μl of the concentrated bacteriocin were injected into an analytic C18 reverse-phase column (Luna 5μ, 4.6×250 mm, Phenomenex, Calif., USA). Elution was performed at a flow rate of 1 ml/min using a linear gradient from 90% solvent A (0.1% (wt/vol) trifluoroacetic acid (TFA) prepared in 5% (vol/vol) acetonitrile in water) and 10% solvent B (0.1% TFA in 100% acetonitrile) to 42 and 58% of solvents A and B, respectively, for 46 min. Peptide fractions were detected by spectrophotometry by measuring the absorbance at 220 nm and were collected manually. The fractions were concentrated using a speed-vac concentrator, dissolved in acetate buffer ([…], pH 4.0) and assayed for both bacteriocin activity by the critical-dilution micromethod, and protein content.
Protein concentration was determined as known in the art. […] Optical densities (650 nm) were then measured using a Thermo-max molecular device spectrophotometer (OPTI-Resources Inc., Quebec, PQ, Canada). […]
The biological activity of divergicin M35 was determined during the purification procedure by both agar diffusion and critical-dilution methods using L. innocua HPB 13 as indicator strain.

[2] = system: L. welshimeri; assay: Agar diffusion method, spectrum of activity; parameters: key to Sensitivity to divergicin M35: +, inhibition;; −, no inhibition; conditions: strain LSD 12
Procedure: (§1) Bacteria stocks were maintained as 20% glycerol stock, at −80° C., for further use. Carnobacterium sp. and Lactococcus sp. strains were cultivated in MRS broth comprising 0.1% (vol/vol) Tween 80® in aerobic condition at 30° C., as currently known in the art. Listeria monocytogenes and Escherichia coli were grown in tryptic soy broth (TSB), supplemented with 0.6% (wt/vol) yeast extract in aerobic conditions, at 37° C., while Listeria innocua and L. ivanovii were re-cultivated in TSB with yeast extract and incubated aerobically at 30° C. Streptococcus thermophilus, Propionibacterium sp. and pediococci were activated in MRS broth at 37° C. under aerobic condition. All lactobacilli and bifidobacteria were grown in MRS broth supplemented with 0.05% (wt/vol) L-cysteine-hydrochloride and incubated anaerobically in Oxoid jars using an atmosphere generation system, at 37° C. In prior experiments, bacteria strains were sub-cultured at least three times (1%, vol/vol) in respective media at 24 h intervals.
(§2) The antibacterial activity of bacteriocin produced by C. divergens M35 was tested toward a variety of bacteria species, listed in Table 1, and belonging to genus Listeria, Lactobacillus, Streptococcus, Lactococcus, Propionibacterium and Escherichia, and was evaluated following the agar diffusion method, as is well known to those skilled in the art.

[3] = system: L. seeligeri; assay: Agar diffusion method, spectrum of activity; parameters: key to Sensitivity to divergicin M35: +, inhibition;; −, no inhibition; conditions: strain LSD 11
Procedure: as §1, §2

[4] = system: Carnobacterium piscicola; assay: Agar diffusion method, spectrum of activity; parameters: key to Sensitivity to divergicin M35: +, inhibition;; −, no inhibition; conditions: strain ATCC 386
Procedure: as §1, §2

[5] = system: Escherichia coli; assay: Agar diffusion method, spectrum of activity; parameters: key to Sensitivity to divergicin M35: +, inhibition;; −, no inhibition
Procedure: as §1, §2

[6] = system: Carnobacterium divergens; assay: Agar diffusion method, spectrum of activity; parameters: key to Sensitivity to divergicin M35: +, inhibition;; −, no inhibition; conditions: strain ATCC 385
Procedure: as §1, §2

[7] = system: L. innocua; assay: Agar diffusion method, spectrum of activity; parameters: key to Sensitivity to divergicin M35: +, inhibition;; −, no inhibition; conditions: strain HPB13
Procedure: as §1, §2

[8] = system: L. grayi; assay: Agar diffusion method, spectrum of activity; parameters: key to Sensitivity to divergicin M35: +, inhibition;; −, no inhibition; conditions: strain LSD 13
Procedure: as §1, §2

[9] = system: L. murayi; assay: Agar diffusion method, spectrum of activity; parameters: key to Sensitivity to divergicin M35: +, inhibition;; −, no inhibition; conditions: strain LSD 14
Procedure: as §1, §2

[10] = system: Listeria monocytogenes; assay: Agar diffusion method, spectrum of activity; parameters: key to Sensitivity to divergicin M35: +, inhibition;; −, no inhibition
Procedure: as §1, §2

divergicin M35: class IIa bacteriocin of 43 amino acids, 4518 Da, produced by Carnobacterium divergens strain M35 (SEQ ID NO: 1) (TKYYGNGVYCNSKKCWVDWGTAQGCIDVVIGQLGGGIPGKGKC; listed as Carnobacterium divergens)
Increase in specific Activity (fold) [1]: 9500 fold | Diameter of inhibition zone (mm) [2]: 20 ± 0.5 mm | Sensitivity to divergicin M35 [2]: + | Diameter of inhibition zone (mm) [3]: 13.5 ± 1 mm | Sensitivity to divergicin M35 [3]: + | Diameter of inhibition zone (mm) [4]: 17.5 ± 1 mm | Sensitivity to divergicin M35 [4]: + | Sensitivity to divergicin M35 ([5]; Escherichia coli 22): − | Sensitivity to divergicin M35 ([5]; Escherichia coli 43): − | effect on Gram-negative strains (in words) ([5]; Escherichia coli strains tested): not affected | Diameter of inhibition zone (mm) [6]: 15.0 ± 1 mm | Sensitivity to divergicin M35 [6]: + | Diameter of inhibition zone (mm) [7]: 21 ± 0.5 mm | Sensitivity to divergicin M35 [7]: + | Diameter of inhibition zone (mm) [8]: 15.0 ± 1 mm | Sensitivity to divergicin M35 [8]: + | Diameter of inhibition zone (mm) [9]: 17.5 ± 1 mm | Sensitivity to divergicin M35 [9]: + | time the antibacterial activity (diameter of the inhibition zone) remained stable ([10]; in every case (sensitive Listeria strains)): ≥ 36 h | number of strains sensitive to divergicin M35 ([10]; of the 24 tested strains of L. monocytogenes): 22 | Sensitivity to divergicin M35 ([10]; strain ATCC 19111): + | Sensitivity to divergicin M35 ([10]; strain ATCC 19112): + | Sensitivity to divergicin M35 ([10]; strain ATCC 19114): + | Sensitivity to divergicin M35 ([10]; strain ATCC 19115): + | Sensitivity to divergicin M35 ([10]; strain ATCC 35152): + | Sensitivity to divergicin M35 ([10]; strain LSD 15): − | sensitivity to divergicin M35 (in words) ([10]; strain LSD 15): resistant | Diameter of inhibition zone (mm) ([10]; strain LSD 332): 18.5 ± 1 mm | Sensitivity to divergicin M35 ([10]; strain LSD 332): + | Diameter of inhibition zone (mm) ([10]; strain LSD 336): 16.5 ± 0.5 mm | Sensitivity to divergicin M35 ([10]; strain LSD 336): + | Diameter of inhibition zone (mm) ([10]; strain LSD 338): 18.0 ± 0.5 mm | Sensitivity to divergicin M35 ([10]; strain LSD 338): + | Diameter of inhibition zone (mm) ([10]; strain LSD 339): 19.0 ± 0.5 mm | Sensitivity to divergicin M35 ([10]; strain LSD 339): + | Diameter of inhibition zone (mm) ([10]; strain LSD 340): 17.0 ± 0.5 mm | Sensitivity to divergicin M35 ([10]; strain LSD 340): + | Diameter of inhibition zone (mm) ([10]; strain LSD 341): 13.0 ± 0.5 mm | Sensitivity to divergicin M35 ([10]; strain LSD 341): + | Diameter of inhibition zone (mm) ([10]; strain LSD 346): 17.5 ± 1 mm | Sensitivity to divergicin M35 ([10]; strain LSD 346): +
